ChEMBL document CHEMBL1201862, “PubChem BioAssay data set” (2004)
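Tested at 5 concentrations; 48 h exposure; 96-well plates; endpoints linearly interpolated, else capped at highest concentration. At the GI50, growth is halved.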 The source made the active and inactive calls. Rule as the data show it: active = GI50 up to about 1.1 µM and inactive = higher.

Key:
Assay in all cases: NCI-60 cell line screen, 48 h
[1] = system: LXFL 529
[2] = system: DMS-273
[3] = system: SNB-78
[4] = system: DMS-114
[5] = system: M19-MEL
[6] = system: RXF 631
[7] = system: DLD-1
[8] = system: XF498
[9] = system: KM-20L2

Measured: GI50

Cc1nc(N)c(-c2ccccc2)s1
inactive: [1] > 100 µM | [2] 39.9 µM | [3] 68.4 µM | [4] > 76 µM | [5] > 100 µM | [6] > 100 µM | [7] > 82.6 µM | [8] 34.6 µM | [9] > 70.8 µM

CCCN(CCC)C(=O)C(=O)c1c(N)[nH]n(-c2ccccc2)c1=O
inactive: [1] 66.2 µM | [2] > 100 µM | [3] > 100 µM | [4] > 100 µM | [5] > 100 µM | [6] > 100 µM | [7] 78.3 µM | [8] > 100 µM | [9] > 100 µM

O=C1C(=O)N(c2ccc(Cl)cc2)C(=O)C(=O)C1c1nc2ccccc2o1
inactive: [1] > 100 µM | [2] > 100 µM | [3] > 100 µM | [4] > 100 µM | [5] > 100 µM | [6] > 100 µM | [7] > 100 µM | [8] > 100 µM | [9] > 100 µM

CN(C)/C=N/c1nc2c(ncn2C2OC(CO)C(O)C2O)c(=O)[nH]1 (stereo unspecified)
inactive: [1] > 100 µM | [2] > 100 µM | [3] > 100 µM | [4] > 100 µM | [5] > 100 µM | [6] > 100 µM | [7] > 100 µM | [8] > 100 µM | [9] > 100 µM
